Data set [1] is described as follows: Mold dissection for tip length and shell length (RTM-209). As to conditions: comparison between GLP-1 tip formulations. Type of data set: physicochemical. How it is done: Mold Dissection for Tip Length (RTM-209): The mold dissection method uses magnified images of sectioned molds to obtain measurements and morphology of the dried tips in the molds. After tip printing and drying, a mold is cross-sectioned with a razor blade in between rows of needles. The dried tips are imaged within the needle cavities using a microscope. The tip overall length and shell length are measured by image processing. The image scale is calibrated using a stage micrometer, and lengths in micrometers are calculated from the lengths measured in pixels. The shell length as a portion of overall length is an indication of consolidation. Minimal shell length, corresponding to maximum consolidation, is preferred.

Data set [2] in a line: Microneedle mechanical strength, Instron compression (crush) test (TM-404). Type of data set: physicochemical. The following applies: for Tip strength (comparison in words): comparison between GLP-1 tip formulations.

Data on four compounds can be found in patent US12636250B2, “Microneedle array patches (MAPs), systems, and methods for manufacturing and using same” (Terrestrial Bio, Inc., priority 2024, dated 2026).

Entries after “also recorded” stand apart in the source; their conditions may differ.

With `Cl.NC(CO)(CO)CO` [Tris-HCl], the “Tip length / shell length / Tip consolidation (comparison in words)” value in data set [1] was “comparable to MOPS in terms of Tip length and strength”. Besides, the “Tip strength (comparison in words)” value in data set [2] was “comparable to MOPS in terms of Tip length and strength”.
On to `[Cl-].[Cl-].[Mg+2]` [MgCl2], for which the “Tip length / shell length / Tip consolidation (comparison in words)” value in data set [1] is given as “also improved Tip consolidation”.
`[Cl-].[Na+]` [NaCl]: the “Tip length / shell length / Tip consolidation (comparison in words)” value in data set [1] is “led to better consolidation of the Tips; also recorded: significantly reduced the shell length and improved the % consolidation of the Tip”. Further, the “Tip strength (comparison in words)” value in data set [2] is given as “comparable”.
For the compound `O=C(O)[C@@H]1CCCN1` [Proline], the “Tip length / shell length / Tip consolidation (comparison in words)” value in data set [1] is reported as “did improve Tip consolidation”. Besides, in data set [2] (GLP-086, higher (3%) concentration of Proline vs feasibility (control) formulation), the strength per needle is reported as above 0.6 N/needle. Further, in data set [2], the “Tip strength (comparison in words)” value is on record as “significantly improves the mechanical strength of GLP-1 containing needles”.
